Reference: patent US9993570B2, “Radiolabeled tracers for poly (ADP-ribose) polymerase-1 (PARP-1), methods and uses therefor” (Washington University, priority 2014, dated 2018)
Entries after “also recorded” stand apart in the source; their conditions may differ. Read-outs that look alike come from different tables or passages of the source.

Tests used:
PARP-1 = PARP-1 (Homo sapiens, UniProt P09874); experiment: PARP-1 enzymatic activity assay (chemical quantification of NAD+)
Description: This assay is based on the chemical quantification of NAD^+, i.e. the amount of NAD^+ consumed when the active PARP-1 C-terminal catalytic domain sequentially transfers ADP-ribose subunits from nicotinamide adenine dinucleotide (NAD^+) to protein acceptors.^7
High-specific-activity PARP-1 and activated DNA were purchased from Trevigen (Gaithersburg, Md.). All other reagents required for this assay including NAD^+ were purchased from Sigma-Aldrich (St. Louis, Mo.). Known PARP-1 inhibitor PJ-34, used as a control in these experiments, was synthesized in-house. […] A solution of 50 μg/mL of activated DNA was made in PARP assay buffer and 10 μL was added to each well. Stock solutions of test compounds were first prepared in DMSO, diluted to varying concentrations in PARP assay buffer, and 10 μL was added to each well. To initiate the reaction, 10 μL of 10 μg/mL PARP-1 enzyme in PARP assay buffer was added to each well. The total volume was 50 μL, bringing the final concentrations to 2 μg/mL PARP-1 enzyme, 10 μg mL activated DNA, and 100 nM NAD^+ per well. The plate was then incubated at room temperature for 20 min. The amount of NAD^+ present was then determined by first adding 20 μL 2 M KOH, followed by 20 μL of 20% acetophenone (in ethanol) to each well.

SCC1 tumors = experiment: microPET imaging with [18F]WC-4-138, SCC1 tumors; assay type: in vivo, mice; conditions: 30 minutes after IP injection, paired t test
Description: This example illustrates uptake of Compound 12 ([^18F]WC-4-138) in mice. Mature female athymic nude mice (Charles River Laboratories) were implanted with 10^6 SCC1 cells or 10^7 MDA-MB-231 cells into the mammary fat pads. Mice bearing SCC1 tumors were imaged at 5 weeks and mice bearing MDA-MB-231 cells were imaged at 2.5 weeks after implant. Mice were anesthetized with 2% isoflurane/oxygen and maintained at 1% isoflurane/oxygen via nose cone throughout the imaging procedure. Whole animal microCT images were acquired on an Inveon PET/CT scanner. The mice were injected via tail vein with 11.36±0.5 MBq (307±13 μCi) of [^18F]WC(4)-138 and underwent a 60 minute dynamic scan using Focus 220 or Inveon PET/CT scanners. The microPET and microCT images were coregistered using Integrated Research Workflow software (Siemens). Regions of interest were drawn over tumors to determine time activity curves. For drug treatment studies, animals reached intraperitoneal injections of 50 mg/kg olaparib or iniparib 30 minutes before imaging. […]
(§1) In FIG. 8, mice were imaged at baseline, or 30 minutes after IP injection of olaparib or iniparib. (A) The percent of injected dose per ml was calculated for each MDA/MB-231 tumor at baseline or after drug treatment. […] Tracer uptake was unchanged in iniparib-treated mice (p=0.1098 as determined by a paired t test, n=6 tumors).

[1] = system: head and neck cell lines SCC1 and SCC25; experiment: [18F]WC-4-138 uptake in cell culture, head and neck lines; assay type: cell-based; conditions: 10 μM drug prior to incubation with tracer
Description: In these experiments, the head and neck squamous cell carcinoma lines SCC1, SCC15, and SCC25 (ATCC) were propagated in Dulbecco's Modified Eagle's Medium (DMEM, Gibco) supplemented with 10% Fetal Bovine Serum (FBS, Gibco), Penicillin-Streptomycin (P/S, Gibco), and 100 ng/ml hydrocortisone (Sigma-Aldrich). The small cell lung cancer lines NCI-h69 and NCI-h82 (ATCC) were propagated m RPMI Medium (Gibco) supplemented with 10% FBS and 1% P/S. The human breast cancer cell line MDA-MB-231 (ATCC) was propagated in Eagle's Minimum Essential Medium (Gibco) supplemented with 5% FBS, 2% Vitamins for MEM (Gibco), 1% 200 mM L-glutamine (Gibco), 1% 10 mM Non-Essential Amino Acid (NEAA, Gibco).
For each experimental replicate, approximately 1 μCi of [^18F]WC-4-138 was diluted in 1 ml of cell culture medium and added to 10^6 cells. After 5, 30, or 60 minutes, the medium was collected and cells were washed twice in 0.7 ml Phosphate Buffered Saline (PBS, Gibco). Adherent cells were collected by scraping the cell culture dish and transferring to a microfuge tube. Radioactivity was measured in the collected medium, PBS, or cell pellets. Protein from the cell pellet was quantified using a […]. All data were decay-corrected and normalized to total protein quantity in the cell pellet. For drug treatment studies, cells were incubated with 10 μM Olaparib or Iniparib twenty-hours prior to incubation with [^18F]WC-4-138.
The head and neck cell lines SCC1 and SCC25 constitutively take up small amounts of tracer, registering as 0.001-0.002 μCi/μg in the cell pellet (FIG. 5A). […] Radioactivity was measured in head and neck squamous cell cancer (HNSCC) lines (SCC1 and SCC25) or small cell lung cancer (SCLC) lines (NCI-h69 and NCI-h82) after incubation with [^18F]WC-4-138 for 5, 30, or 60 minutes (n=3 at each time point). […] PARP activity was measured in HNSCC or lung SCLC cells. (FIG. 5C-D) [^18F]WC-4-138 uptake was measured in HNSCC cell lines treated with olaparib or iniparib. […]

MDA-MB-231 tumors = experiment: microPET imaging with [18F]12, MDA-MB-231 tumors; assay type: in vivo, mice; conditions: for effect of drug treatment on tracer uptake outside the tumor (microPET images): MDA-MB-231 tumor-bearing mice; for effect of drug treatment on tracer uptake outside the tumor (microPET images) / effect of drug treatment on tumor uptake of tracer (microPET images): 50 mg/kg IP 30 minutes before imaging; for effect of drug treatment on tumor uptake of tracer (microPET images) / tracer uptake, percent of injected dose per ml, after drug treatment vs baseline: MDA-MB-231 tumors; for tracer uptake, percent of injected dose per ml, after drug treatment vs baseline: 30 minutes after IP injection, paired t test
Description: (§2) This example illustrates the visualization of tumor tissue in microPET in mice. MDA-MB-436 human breast cancer xenograft tumors in immune-deficient mice were visualized by PET using [^18F]12.
(§3) Tumor-bearing mice were placed in an induction chamber containing ˜2% isoflurane/oxygen and then secured to a custom double bed for placement of tail vein catheters; anesthesia was maintained via nose-cone at ˜1% isoflurane/oxygen for the dynamic imaging procedure. The mice were injected with 150-200 μCi of [^18F]12 and scanned for 0-60 min using Focus 220 and Inveon PET/CT scanners. The standard uptake values (SUVs) were generated from manually drawn regions of interests for tumors and surrounding ‘background’ tissue. Visualization of specific uptake was determined by comparison of baseline scans with images acquired by tracer injection 20 minutes after pre-treatment with the blocking agents olaparib (50 mg/kg, IP) or 12 (1 mg/kg, IP).
This example illustrates uptake of Compound 12 ([^18F]WC-4-138) in mice. Mature female athymic nude mice (Charles River Laboratories) were implanted with 10^6 SCC1 cells or 10^7 MDA-MB-231 cells into the mammary fat pads. Mice bearing SCC1 tumors were imaged at 5 weeks and mice bearing MDA-MB-231 cells were imaged at 2.5 weeks after implant. Mice were anesthetized with 2% isoflurane/oxygen and maintained at 1% isoflurane/oxygen via nose cone throughout the imaging procedure. Whole animal microCT images were acquired on an Inveon PET/CT scanner. The mice were injected via tail vein with 11.36±0.5 MBq (307±13 μCi) of [^18F]WC(4)-138 and underwent a 60 minute dynamic scan using Focus 220 or Inveon PET/CT scanners. The microPET and microCT images were coregistered using Integrated Research Workflow software (Siemens). Regions of interest were drawn over tumors to determine time activity curves. For drug treatment studies, animals reached intraperitoneal injections of 50 mg/kg olaparib or iniparib 30 minutes before imaging. Mice were imaged at baseline, or 30 minutes after IP injection of olaparib or iniparib. Arrows indicate location of tumors as identified on CT.
as §1

MDA-MB-436 tumors = experiment: microPET imaging with [18F]12, MDA-MB-436 xenograft tumors; assay type: in vivo, mice; conditions: olaparib 50 mg/kg i.p. or 12 1 mg/kg i.p., 20 min prior to tracer
Description: as §2
MDA-MB-436 and MDA-MB-231 human breast cancer cells were maintained in cell culture under standard conditions with 5% CO2 atmosphere using Eagle's minimum essential medium (with Earle's balanced salt solution and 2 mM L-glutamine) supplemented with 2 mM E-glutamine, 1 mM sodium pyruvate, 0.1 mM non-essential amino acids 2% vitamins for MEM, and 5% fetal bovine serum. Cells in exponential growth were trypsinized and harvested for tumor implantation. After counting, cells were re-suspended in ice-cold 1:1 Matrigel and PBS to give the desired concentration and held on ice.
Mature female athymic nu/nu mice from Charles River Laboratories are allowed to acclimate in an AALAC accredited housing facility for at least 1 week prior to tumor implantation for these serial imaging studies. Female nu/nu mice were implanted in the mammary fat pads (near the auxiliary lymph nodes) with ˜8×10^6 MDA-MB-436 breast cancer cells in ˜100 μL of 1:1 Matrigel:PBS. Imaging studies were conducted 2-3 weeks post implantation.
as §3

[2] = read-out: IC50 (nM), inhibition of PARP-1, mean ± SD, at least three independent experiments

Chain of PARP-1 (P09874 whole entry): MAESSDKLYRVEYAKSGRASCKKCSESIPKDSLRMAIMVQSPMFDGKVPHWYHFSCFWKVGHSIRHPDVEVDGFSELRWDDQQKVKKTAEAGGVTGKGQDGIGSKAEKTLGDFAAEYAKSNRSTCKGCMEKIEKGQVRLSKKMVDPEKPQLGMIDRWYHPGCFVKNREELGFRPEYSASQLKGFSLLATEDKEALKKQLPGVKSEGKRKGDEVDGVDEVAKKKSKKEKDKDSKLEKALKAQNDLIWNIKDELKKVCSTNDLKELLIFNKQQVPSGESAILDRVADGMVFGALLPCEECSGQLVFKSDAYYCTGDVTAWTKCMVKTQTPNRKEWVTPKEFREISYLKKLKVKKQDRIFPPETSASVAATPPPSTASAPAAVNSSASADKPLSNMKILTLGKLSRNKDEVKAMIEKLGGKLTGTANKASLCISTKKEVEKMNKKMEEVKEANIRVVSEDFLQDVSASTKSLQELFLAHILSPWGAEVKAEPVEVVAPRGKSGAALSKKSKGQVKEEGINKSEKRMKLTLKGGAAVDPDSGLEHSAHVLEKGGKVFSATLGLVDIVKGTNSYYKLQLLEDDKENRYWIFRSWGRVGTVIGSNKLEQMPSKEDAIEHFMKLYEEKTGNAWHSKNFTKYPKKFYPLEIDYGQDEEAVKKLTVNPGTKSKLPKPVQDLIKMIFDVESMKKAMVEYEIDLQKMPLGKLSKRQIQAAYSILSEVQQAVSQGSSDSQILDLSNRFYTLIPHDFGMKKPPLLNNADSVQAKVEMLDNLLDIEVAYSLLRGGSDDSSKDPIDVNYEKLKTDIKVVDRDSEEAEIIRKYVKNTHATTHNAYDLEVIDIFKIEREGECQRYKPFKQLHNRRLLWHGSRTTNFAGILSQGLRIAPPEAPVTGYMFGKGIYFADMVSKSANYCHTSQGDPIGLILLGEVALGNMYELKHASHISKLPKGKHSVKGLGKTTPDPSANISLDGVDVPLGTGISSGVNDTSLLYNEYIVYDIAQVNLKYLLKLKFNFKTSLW

Question: For NC(=O)c1cccc2[nH]c(-c3ccc(OCCF)cc3)nc12 [Compound 8, 2-(4-(2-Fluoroethoxy)phenyl)-1H-benzo[d]imidazole-4-carboxamide], which IC50 (PARP-1; read-out: IC50, inhibition of PARP-1, unit inferred) is on record?
Answer: Its IC50 is 10.8 nM.

Question: Which IC50 (PARP-1; [2]) does the source give for C#CCOc1ccc(-c2nc3c(C(N)=O)cccc3[nH]2)cc1 [Compound 9, 2-(4-(Prop-2-ynloxy)phenyl)-1H-benzo[d]imidazole-4-carboxamide] here?
Answer: The IC50 was 25.8 ± 3.3 nM.

Question: With O=C1NCCn2c(-c3ccc(OCCF)cc3)nc3cccc1c32 [Compound 12, 5,6-Dihydro-2-(4-(2-fluoroethoxy)phenyl)-imidazo [4,5,1-jk][1,4]benezodiazepin-7(4H)-one] as the molecule, how does the IC50 (PARP-1) read?
Answer: Its IC50 is 63 nM.

Question: With C#CCOc1ccc(-c2nc3cccc4c3n2CCNC4=O)cc1 [Compound 13, 5,6-Dihydro-2-(4-(prop-2-ynyloxy)phenyl)-imidazo[4,5,1-jk][1,4]benzodiazepine-7(4H)-one] as the molecule, how does the IC50 (PARP-1; [2]) read?
Answer: Its IC50 is 18.7 ± 2.7 nM.

Question: With O=C1NCCn2c(-c3ccc(OCc4cn(CCF)nn4)cc3)nc3cccc1c32 [Compound 15, 5,6-Dihydro-2-(4-((1-(2-fluoroethyl)-1H-1,2,3-triazol-4-yl)methoxy)phenyl)-imidazo[4,5,1-jk][1,4]benzodiazepin-7(4H)-one] as the molecule, how does the IC50 (PARP-1; [2]) read?
Answer: The IC50 was 22.1 ± 6.3 nM.

Question: NC(=O)c1ccc(I)c([N+](=O)[O-])c1 [iniparib] was tested. Which “tracer uptake, percent of injected dose per ml, after drug treatment vs baseline” value (SCC1 tumors) did it give?
Answer: Its value is “unchanged”.

Question: And the “effect of drug on [18F]WC-4-138 uptake in HNSCC cell lines” value [1]?
Answer: The value was “not”.

Question: What about the “effect of drug treatment on tracer uptake outside the tumor (microPET images)” value (MDA-MB-231 tumors) of the same molecule?
Answer: Its value is “abolishes said uptake in other types of cells”.

Question: And the “effect of drug treatment on tumor uptake of tracer (microPET images)” value (MDA-MB-231 tumors)?
Answer: Its value is “does not effect the uptake”.

Question: And the “tracer uptake, percent of injected dose per ml, after drug treatment vs baseline” value (MDA-MB-231 tumors)?
Answer: Its value is “unchanged”.

Question: O=C(c1cc(Cc2n[nH]c(=O)c3ccccc23)ccc1F)N1CCN(C(=O)C2CC2)CC1 [olaparib] was tested. Which “effect of pretreatment on [18F]12 uptake in MDA-MB-436 tumors” value (MDA-MB-436 tumors) did it give?
Answer: The value was “decreased [^18F]12 uptake in the tumors to the background tissue activity levels; also recorded: significantly decreased [^18F]12 uptake; also recorded: blocked”.

Question: What about the “effect of pretreatment on [18F]12 uptake in MDA-MB-436 tumors” value (MDA-MB-436 tumors; listed as olaparib/AZD2281) of the same molecule?
Answer: The value was “blocked”.

Question: And the “tracer uptake, percent of injected dose per ml, after drug treatment vs baseline” value (SCC1 tumors)?
Answer: The value was “significantly reduced”.

Question: What about the “effect of drug on [18F]WC-4-138 uptake in HNSCC cell lines” value [1] of the same molecule?
Answer: The value was “abolished”.

Question: And the “effect of drug treatment on tracer uptake outside the tumor (microPET images)” value (MDA-MB-231 tumors)?
Answer: The value was “tracer is still present in other areas of the section”.

Question: What about the “effect of drug treatment on tumor uptake of tracer (microPET images)” value (MDA-MB-231 tumors) of the same molecule?
Answer: The value was “abolished”.

Question: What about the “tracer uptake, percent of injected dose per ml, after drug treatment vs baseline” value (MDA-MB-231 tumors) of the same molecule?
Answer: The value was “significantly reduced”.

Question: What about the “effect of pretreatment on [18F]12 uptake in MDA-MB-231 tumor” value (MDA-MB-231 tumors; i.p. 50 mg/kg, 20 min pretreatment) of the same molecule?
Answer: Its value is “decreased [^18F]12 uptake”.
